Data on 2 substances can be found in US4861760A, “Ophthalmological composition of the type which undergoes liquid-gel phase transition” (Merck & Co., Inc., priority 1985, dated 1989).

The nature of data set [1]: compatibility / gelling effect of ingredients in Gelrite solution. In kind it is physicochemical. To be noted: 0.1 mg/ml added; can be eliminated by adding a small amount of acetic acid.
For the next data set, the system named is eye. To be noted: rabbit, in vivo.

As for benzalkonium chloride, the “gelling effect in a Gelrite solution” value in data set [1] is listed as “slight gelling effect”.
With gellan gum, the eye irritation result with eye is listed as “not regarded as an eye irritant”.
